Nine compounds from ChEMBL document CHEMBL4118096, “Branched Peptides: Acridine and Boronic Acid Derivatives as Antimicrobial Agents” (ACS Med Chem Lett, 2017) can be followed below.

Data set [1] has as its system U-87 MG. Briefly: Cytotoxicity against human U87 cells assessed as decrease in cell viability at 10 uM after 24 hrs by MTT assay. In kind it is cell-based. The conditions noted are these: u-87mg atcc.
For data set [2], the system named is Aspergillus niger. As to the kind of experiment: Antifungal activity against Aspergillus niger measured on day 4 by broth microdilution method. In kind it is functional. The following applies: 96 h. (In general: In broth dilution the organism is exposed to a series of concentrations in liquid medium.)
The test system of data set [3] is Staphylococcus aureus. As to the kind of experiment: Antimicrobial activity against methicillin-resistant Staphylococcus aureus ATCC 43300 measured on day 4 by broth microdilution method. In kind it is functional. The following applies: ATCC 43300, 96 h.
The test system of data set [4] is Escherichia coli. As to the kind of experiment: Antimicrobial activity against Escherichia coli C ATCC 13706 measured on day 4 by broth microdilution method. In kind it is functional. The conditions noted are these: C ATCC 13706, 96 h.
In data set [5] the test system is Candida albicans. Briefly: Antifungal activity against Candida albicans measured on day 4 by broth microdilution method. In kind it is functional. The following applies: 96 h.
In data set [6] the test system is Staphylococcus aureus. As to the kind of experiment: Antimicrobial activity against Staphylococcus aureus ATCC 6538 measured on day 4 by broth microdilution method. The conditions noted are these: ATCC 6538, 96 h. Type of data set: functional.
Data set [7] concerns Mycolicibacterium smegmatis. As to the kind of experiment: Antimicrobial activity against Mycobacterium smegmatis ATCC 607 measured on day 4 by broth microdilution method. Type of data set: functional. The following applies: ATCC 607, 96 h.
The nature of data set [8]: Safety index, ratio of EC10 for hemolytic activity in sheep RBC to MIC for Candida albicans. Type of data set: toxicity. The following applies: sheep red blood cells.
Data set [9] has as its system Candida albicans. Briefly: Antibiofilm activity against Candida albicans VT1406 after 24 hrs by XXT/PMS dye based assay. In kind it is functional. The conditions noted are these: VT1406, 24 h.
The test system of data set [10] is Candida albicans. As to the kind of experiment: Antifungal activity against Candida albicans VT1406 in cell suspension after 24 hrs by XXT/PMS dye based assay. Type of data set: functional. The conditions noted are these: VT1406, 24 h.
Data set [11] relates to Erythrocyte. Briefly: Hemolytic activity in sheep RBC measured after 15 mins. Type of data set: ADME, cell-based, Ovis aries. The conditions noted are these: 0.25 h.
Data set [12] relates to Candida albicans. As to the kind of experiment: Induction of membrane lysis in Candida albicans assessed as maltase release at MIC after 60 mins relative to control. Type of data set: functional.
Data set [13] deals with Saccharomyces cerevisiae. As to the kind of experiment: Induction of membrane lysis activity in Saccharomyces cerevisiae assessed as maltase release at MIC after 60 mins relative to control. Type of data set: functional.

≈ marks a conversion by molar mass, not a printed value. Where a SMILES comes first, the peptide text is derived from it. The star is where a group is joined. Benzoyl(4-B(OH)2) = O=C(c1ccc(B(O)O)cc1)*; Acridin9yl = c1ccc2c(*)c3ccccc3nc2c1; Bz = O=C(c1ccccc1)* Some results are limits rather than exact numbers.

For the compound `CC(C)C[C@H](NC(=O)[C@H](CCCCN)NC(=O)[C@H](CCCCN)NC(=O)[C@H](CCCCN)NC(=O)[C@H](CCCCNc1c2ccccc2nc2ccccc12)NC(=O)[C@H](CCCCN)NC(=O)[C@H](CCCCN)NC(=O)[C@@H](N)CCCCNc1c2ccccc2nc2ccccc12)C(=O)N[C@@H](CCCCNC(=O)c1ccc(B(O)O)cc1)C(=O)N[C@@H](Cc1ccc(O)cc1)C(=O)O` (H-K(Acridin9yl)KKK(Acridin9yl)KKKLK(Benzoyl(4-B(OH)2))Y-OH), the Activity result in data set [1] is “Non-Toxic”. The MIC in data set [2] is 32 µg/mL (≈ 17.6 µM); in [3], 2 µg/mL (≈ 1.1 µM); in [4] it was 4 µg/mL (≈ 2.2 µM); in data set [5], 8 µg/mL (≈ 4.39 µM); in data set [6], 1 µg/mL (≈ 0.549 µM); in data set [7], 16 µg/mL (≈ 8.78 µM).
Consider `CC(C)C[C@H](NC(=O)[C@H](CCCCN)NC(=O)[C@H](CCCCN)NC(=O)[C@H](CCCCNc1c2ccccc2nc2ccccc12)NC(=O)[C@H](CCCCN)NC(=O)[C@H](CCCCN)NC(=O)[C@H](CCCCNc1c2ccccc2nc2ccccc12)NC(=O)[C@@H](N)CCCCN)C(=O)N[C@@H](CCCCNC(=O)c1ccc(B(O)O)cc1)C(=O)N[C@@H](Cc1ccc(O)cc1)C(=O)O` (H-KK(Acridin9yl)KKK(Acridin9yl)KKLK(Benzoyl(4-B(OH)2))Y-OH), for which the Activity result in [1] was “Non-Toxic”; in data set [12], 1%; in [13], 1.4%. Further, in [8], the selectivity ratio was over 100. The MIC in [2] was 32 µg/mL (≈ 17.6 µM); in [9], 1 µg/mL (≈ 0.549 µM); in data set [10], 2 µg/mL (≈ 1.1 µM); in data set [4], 2 µg/mL (≈ 1.1 µM); in [5], 2 µg/mL (≈ 1.1 µM); in data set [6], 8 µg/mL (≈ 4.39 µM). Also, in [7], the MIC was determined as 32 µg/mL (≈ 17.6 µM). The 10% effect concentration (EC10) – broadly, the point of the concentration-response curve where the effect stands at 10% – in data set [11] was over 250 µg/mL.
In the case of `NCCCC[C@H](NC(=O)[C@H](CCCCNc1c2ccccc2nc2ccccc12)NC(=O)[C@H](CCCCNc1c2ccccc2nc2ccccc12)NC(=O)[C@H](CCCCN)NC(=O)[C@H](CCCCN)NC(=O)[C@H](CCCCN)NC(=O)[C@H](CCCCN)NC(=O)[C@H](CCCCN)NC(=O)[C@@H](N)CCCCN)C(=O)N[C@@H](Cc1ccc(O)cc1)C(=O)O` (H-KKKKKKK(Acridin9yl)K(Acridin9yl)KY-OH), the Activity result in data set [1] is “Non-Toxic”. Also, the MIC is 62.5 µg/mL (≈ 37 µM) in [2]; 62.5 µg/mL (≈ 37 µM) in data set [3]; 8 µg/mL (≈ 4.74 µM) in [4]; 4 µg/mL (≈ 2.37 µM) in [5]; 1 µg/mL (≈ 0.592 µM) in data set [6]; 16 µg/mL (≈ 9.47 µM) in data set [7].
As for `CC(C)C[C@H](NC(=O)[C@H](CCCCNc1c2ccccc2nc2ccccc12)NC(=O)[C@H](CCCCN)NC(=O)[C@H](CCCCN)NC(=O)[C@H](CCCCN)NC(=O)[C@H](CCCCN)NC(=O)[C@H](CCCCN)NC(=O)[C@@H](N)CCCCN)C(=O)N[C@@H](CCCCN)C(=O)N[C@@H](Cc1ccc(O)cc1)C(=O)O` (H-KKKKKKK(Acridin9yl)LKY-OH), the Activity entry in [1] is recorded as “Non-Toxic”; in data set [12], 1%; in data set [13], 0.95%. Also, in data set [8], the selectivity ratio is over 100. Also, the MIC in data set [2] amounted to 62.5 µg/mL (≈ 41.8 µM); in data set [9], 62.5 µg/mL (≈ 41.8 µM); in data set [10], 1 µg/mL (≈ 0.668 µM); in data set [4], 16 µg/mL (≈ 10.7 µM); in [5], 1 µg/mL (≈ 0.668 µM); in data set [6], 16 µg/mL (≈ 10.7 µM). In data set [7], this compound came in with an MIC of 16 µg/mL (≈ 10.7 µM). In data set [11], this compound had an EC10 of 175 µg/mL (≈ 117 µM).
In the case of `CC(C)C[C@H](NC(=O)[C@H](CCCCNC(=O)c1ccccc1)NC(=O)[C@H](CCCCN)NC(=O)[C@H](CCCCN)NC(=O)[C@H](CCCCN)NC(=O)[C@H](CCCCN)NC(=O)[C@H](CCCCN)NC(=O)[C@@H](N)CCCCN)C(=O)N[C@@H](CCCCN)C(=O)N[C@@H](Cc1ccc(O)cc1)C(=O)O` (H-KKKKKKK(Bz)LKY-OH), the MIC in data set [2] worked out at 125 µg/mL (≈ 87.8 µM); in data set [4], 32 µg/mL (≈ 22.5 µM); in data set [5], 2 µg/mL (≈ 1.4 µM); in data set [6], 62.5 µg/mL (≈ 43.9 µM); in data set [7], 32 µg/mL (≈ 22.5 µM). In addition, the Activity in data set [12] was under 1%; in data set [13], 1%.
As to `CC(C)C[C@H](NC(=O)[C@H](CCCCN)NC(=O)[C@H](CCCCN)NC(=O)[C@H](CCCCN)NC(=O)[C@H](CCCCN)NC(=O)[C@H](CCCCN)NC(=O)[C@H](CCCCN)NC(=O)[C@@H](N)CCCCN)C(=O)N[C@@H](CCCCNc1c2ccccc2nc2ccccc12)C(=O)N[C@@H](Cc1ccc(O)cc1)C(=O)O` (H-KKKKKKKLK(Acridin9yl)Y-OH), the Activity result is “Non-Toxic” in data set [1], 6% in data set [12] and 0.7% in [13]. Also, the selectivity ratio in data set [8] is over 100. Further, the MIC in data set [2] stood at 62.5 µg/mL (≈ 41.8 µM); in data set [9], 1 µg/mL (≈ 0.668 µM); in [10], 1 µg/mL (≈ 0.668 µM); in data set [4] it was 8 µg/mL (≈ 5.34 µM); in [5], 2 µg/mL (≈ 1.34 µM); in data set [6], 16 µg/mL (≈ 10.7 µM). For the same compound, the MIC in data set [7] came to 32 µg/mL (≈ 21.4 µM). Also, the EC10 in data set [11] was over 250 µg/mL.
Consider `CC(C)C[C@H](NC(=O)[C@H](CCCCN)NC(=O)[C@H](CCCCN)NC(=O)[C@H](CCCCN)NC(=O)[C@H](CCCCN)NC(=O)[C@H](CCCCN)NC(=O)[C@H](CCCCN)NC(=O)[C@@H](N)CCCCN)C(=O)N[C@@H](CCCCNC(=O)c1ccccc1)C(=O)N[C@@H](Cc1ccc(O)cc1)C(=O)O` (H-KKKKKKKLK(Bz)Y-OH), for which the MIC in data set [2] was determined as 125 µg/mL (≈ 87.8 µM); in [4], 8 µg/mL (≈ 5.62 µM); in data set [5], 1 µg/mL (≈ 0.702 µM); in data set [6] it was 62.5 µg/mL (≈ 43.9 µM); in data set [7] it was 32 µg/mL (≈ 22.5 µM). Further, the results for the Activity in data set [12] and in data set [13] were 4% and 1.8%, respectively.
Regarding `C[C@@H]1[C@H](O)[C@@H](C)/C=C/C=C/C=C/C=C/C=C/C=C/C=C/[C@H](O[C@@H]2O[C@H](C)[C@@H](O)[C@H](N)[C@@H]2O)C[C@@H]2O[C@](O)(C[C@@H](O)C[C@@H](O)[C@H](O)CC[C@@H](O)C[C@@H](O)CC(=O)O[C@H]1C)C[C@H](O)[C@H]2C(=O)O` [AMPHOTERICIN B], the MIC in data set [9] and in data set [10] was 0.25 µg/mL (≈ 0.271 µM) each time.
With `Clc1ccc(COC(Cn2ccnc2)c2ccc(Cl)cc2Cl)c(Cl)c1` (stereo not drawn) [MICONAZOLE], the MIC came to 4 µg/mL (≈ 9.61 µM) in [9] and 1 µg/mL (≈ 2.4 µM) in data set [10].
